Data published in ChEMBL document CHEMBL2218064, “Structure-activity relationship data for chemical series of antagonists of the P2X7 receptor (Supplementary Bioactivity Data for publication CHEMBL1157114)”.

These compounds were tested against T1, P2X purinoceptor 7 (Homo sapiens, UniProt Q99572) (assay: SUPPLEMENTARY: Inhibition of human P2X7 receptor assessed as inhibition of ethidium bromide accumulation. Same assay as CHEMBL1103860).
T1 sequence (Q99572 whole entry): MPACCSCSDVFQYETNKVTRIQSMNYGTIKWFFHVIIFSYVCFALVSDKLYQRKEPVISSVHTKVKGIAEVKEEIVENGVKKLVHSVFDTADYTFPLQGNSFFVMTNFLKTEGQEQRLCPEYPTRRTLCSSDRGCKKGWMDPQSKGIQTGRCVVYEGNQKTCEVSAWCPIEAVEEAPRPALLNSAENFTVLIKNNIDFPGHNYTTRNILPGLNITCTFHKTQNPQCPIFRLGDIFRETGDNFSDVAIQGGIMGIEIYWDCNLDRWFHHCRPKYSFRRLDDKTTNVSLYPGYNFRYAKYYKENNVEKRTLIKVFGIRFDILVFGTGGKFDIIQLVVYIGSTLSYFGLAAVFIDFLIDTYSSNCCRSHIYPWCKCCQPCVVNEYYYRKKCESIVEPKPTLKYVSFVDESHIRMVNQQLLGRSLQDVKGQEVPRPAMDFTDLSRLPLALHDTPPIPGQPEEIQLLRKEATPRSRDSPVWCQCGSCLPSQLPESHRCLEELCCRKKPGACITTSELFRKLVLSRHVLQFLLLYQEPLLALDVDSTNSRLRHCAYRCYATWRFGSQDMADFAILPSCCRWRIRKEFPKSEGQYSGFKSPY

Compound	IC50 [nM]
Cc1c(N2CCCC2)cccc1N1CCN(Cc2ccc(F)cc2Cl)C(=O)C1=O	25.1
Cc1cccc(C)c1N1CCN(Cc2ccc(F)c(F)c2F)C(=O)C1=O	39.8
Cc1cccc(C)c1N1CCN(Cc2ccc(F)cc2C(F)(F)F)C(=O)C1=O	7.94
Cc1cccc(C)c1N1CCN(Cc2ccc(Cl)cc2Cl)C(=O)C1=O	1.58
Cc1c(Cl)cccc1N1CCN(Cc2ccc(F)cc2Cl)C(=O)C1=O	12.6
O=C(c1cccc(C(F)(F)F)c1F)N1CCN(c2ccc(F)cc2Cl)C(=O)C1	63.1
Cc1cc(Br)ccc1N1CCN(Cc2ccc(F)cc2Cl)C(=O)C1=O	79.4
Cc1c(N2CCN(Cc3ccc(F)cc3Cl)C(=O)C2=O)cccc1-n1ccnc1	50.1
COc1c(N2CCOCC2)cccc1N1CCN(Cc2ccc(F)cc2Cl)C(=O)C1=O	25.1
Cc1cccc(C(=O)N2CCN(c3ccc(F)cc3Cl)C(=O)C2)c1Cl	31.6
CCN(CC)c1ccc(N2CCN(Cc3ccc(F)cc3Cl)C(=O)C2=O)c(C)c1	12.6
COc1cccc(OC)c1N1CCN(Cc2ccc(F)cc2Cl)C(=O)C1=O	20
O=C(c1ccc(Cl)cc1F)N1CCN(c2ccc(F)cc2Cl)C(=O)C1	63.1
O=C(c1c(Cl)cccc1Cl)N1CCN(c2ccc(F)cc2Cl)C(=O)C1	63.1
CC(C)Oc1cc(F)ccc1N1CCN(C(=O)c2cccc(Cl)c2Cl)CC1=O	15.8
C[C@@H]1CN(Cc2ccc(Cl)cc2Cl)C(=O)C(=O)N1c1ccccc1	25.1
O=C(c1ccc(F)c(F)c1Cl)N1CCN(c2ccc(F)cc2Cl)C(=O)C1	39.8
O=C(c1cccc(F)c1F)N1CCN(c2ccc(F)cc2Cl)C(=O)C1	316
O=C(c1c(F)ccc(F)c1Cl)N1CCN(c2ccc(F)cc2Cl)C(=O)C1	631

Compound	IC50 [nM]
O=C(c1cccc(Cl)c1F)N1CCN(c2ccc(F)cc2Cl)C(=O)C1	158
O=C(c1ccc(F)c(Cl)c1F)N1CCN(c2ccc(F)cc2Cl)C(=O)C1	100
CN1CCN(C(=O)c2cccc(C(F)(F)F)c2Cl)CC1=O	63.1
CN1CCN(C(=O)c2ccc(Cl)cc2Cl)CC1=O	251
CN1CCN(C(=O)c2ccc(F)cc2Cl)CC1=O	501
N#Cc1cc(F)ccc1N1CCN(C(=O)c2cccc(Cl)c2Cl)CC1=O	3.98
CC(C)CN1CCN(C(=O)c2cccc(Cl)c2Cl)CC1=O	50.1
O=C(c1ccc(F)cc1Cl)N1CCN(c2ccc(F)cc2Cl)C(=O)C1	251
Cc1cccc(C(=O)N2CCN(C)C(=O)C2)c1Cl	631
CCN1CCN(C(=O)c2cccc(C(F)(F)F)c2Cl)CC1=O	126
O=C1CN(C(=O)c2cccc(C(F)(F)F)c2Cl)CCN1CC(F)(F)F	200
CC(C)N1CCN(C(=O)c2cccc(C(F)(F)F)c2Cl)CC1=O	100
COCCN1CCN(C(=O)c2cccc(C(F)(F)F)c2Cl)CC1=O	316
COc1ccc(I)cc1N1CCN(C(=O)c2cccc(C(F)(F)F)c2Cl)CC1=O	12.6
CC(C)CN1CCN(C(=O)c2cccc(C(F)(F)F)c2Cl)CC1=O	200
O=C1CN(C(=O)c2cccc(C(F)(F)F)c2Cl)CCN1CC1CCCCC1	79.4
CCC(CC)N1CCN(C(=O)c2cccc(C(F)(F)F)c2Cl)CC1=O	6.31
O=C1CN(C(=O)c2cccc(C(F)(F)F)c2Cl)CCN1CC1CC1	12.6
CCCN1CCN(C(=O)c2cccc(C(F)(F)F)c2Cl)CC1=O	50.1

Compound	IC50 [nM]
O=C1CN(C(=O)c2cccc(C(F)(F)F)c2Cl)CCN1Cc1ccncc1	316
CCN1C(=O)N(C)C[C@H]1C(=O)NCc1ccc(Cl)cc1Cl	1.58
CCN1C(=O)N(C)C[C@H]1C(=O)NCc1ccc(F)cc1Cl	7.94
O=C(c1cccc(C(F)(F)F)c1Cl)N1CCn2ccnc2C1	100
O=C1CN(C(=O)c2cccc(C(F)(F)F)c2Cl)CCN1Cc1cccnc1	398
O=C1CN(C(=O)c2cccc(C(F)(F)F)c2Cl)CCN1Cc1ccccn1	158
O=C1CN(C(=O)c2cccc(C(F)(F)F)c2Cl)CCN1CC1CCC1	200
O=C(c1cccc(C(F)(F)F)c1Cl)N1CCN(C2CCCC2)C(=O)C1	158
O=C1CN(C(=O)c2cccc(C(F)(F)F)c2Cl)CCN1CC1CCCO1 (stereo not drawn)	79.4
Cc1cc(Cl)cc(Cl)c1CNC(=O)[C@@H]1CNC(=O)N1C	1.26
Cc1cc(Cl)ccc1CNC(=O)[C@@H]1CNC(=O)N1C	31.6
CCN1C(=O)NC[C@H]1C(=O)NCc1ccc(Cl)cc1Cl	12.6
CCN1C(=O)NC[C@H]1C(=O)NCc1ccc(F)cc1Cl	39.8
O=C(c1cccc(C(F)(F)F)c1Cl)N1CCn2cc(C(F)(F)F)nc2C1	39.8
O=C(c1ccc(Cl)cc1Cl)N1CCn2cc(C(F)(F)F)nc2C1	794
Cc1cc(Cl)cc(Cl)c1CNC(=O)[C@@H]1CN(C)C(=O)N1C	0.794
N#CCCN1CCN(C(=O)c2cccc(C(F)(F)F)c2Cl)CC1=O	316
CC(C#N)N1CCN(C(=O)c2cccc(C(F)(F)F)c2Cl)CC1=O (stereo not drawn)	251
CN1C[C@@H](C(=O)NCc2ccc(Cl)cc2Cl)N(CC(F)F)C1=O	15.8

Other lines, results leading:

IC50 [nM]	Compound
15.8	CN1C(=O)N(c2nccc(C(F)(F)F)n2)C[C@H]1C(=O)NCc1cccc(C(F)(F)F)c1Cl
31.6	CN1C(=O)N(c2nccc(C(F)(F)F)n2)C[C@H]1C(=O)NCc1ccc(Cl)cc1Cl
100	CN1C(=O)N(c2nccc(C(F)(F)F)n2)C[C@H]1C(=O)NCc1ccc(F)cc1Cl
7.94	Cc1ccc(N2C[C@@H](C(=O)NCc3cccc(C(F)(F)F)c3Cl)N(C)C2=O)c(C)n1
15.8	Cc1ccc(N2C[C@@H](C(=O)NCc3ccc(Cl)cc3Cl)N(C)C2=O)c(C)n1
63.1	Cc1ccc(N2C[C@@H](C(=O)NCc3ccc(F)cc3Cl)N(C)C2=O)c(C)n1
10	CC(C)Oc1cc(F)ccc1N1CCN(C(=O)c2cccc(C(F)(F)F)c2Cl)CC1=O
7.94	CN1C(=O)N(c2cn(C)cn2)C[C@H]1C(=O)NCc1ccc(Cl)cc1Cl
10	CN1C(=O)N(c2cncn2C)C[C@H]1C(=O)NCc1ccc(Cl)cc1Cl
5.01	CN1C(=O)N(c2cncn2C)C[C@H]1C(=O)NCc1cccc(C(F)(F)F)c1Cl
50.1	CN1C(=O)N(c2cc(C(F)(F)F)ncn2)C[C@H]1C(=O)NCc1ccc(F)c(F)c1Cl
31.6	CN1C(=O)N(c2cc(C(F)(F)F)ncn2)C[C@H]1C(=O)NCc1ccc(Cl)cc1Cl
31.6	CN1C(=O)N(c2cc(C(F)(F)F)ncn2)C[C@H]1C(=O)NCc1cccc(C(F)(F)F)c1Cl
20	CN1C(=O)N(c2ccc(F)nc2)C[C@H]1C(=O)NCc1ccc(Cl)cc1Cl
7.94	CN1C(=O)N(c2ccc(F)nc2)C[C@H]1C(=O)NCc1cccc(C(F)(F)F)c1Cl
6.31	Cc1c(Br)cccc1N1CCN(C(=O)c2cccc(C(F)(F)F)c2Cl)CC1=O
15.8	CN1C[C@@H](C(=O)NCc2ccc(Cl)cc2Cl)N(CC(F)(F)F)C1=O
0.794	CCN1C(=O)N(C)C[C@H]1C(=O)NCc1cccc(C(F)(F)F)c1Cl
15.8	COc1ccc(N2C[C@@H](C(=O)NCc3ccc(Cl)cc3Cl)N(C)C2=O)cn1
7.94	COc1ccc(N2C[C@@H](C(=O)NCc3cccc(C(F)(F)F)c3Cl)N(C)C2=O)cn1
3.98	N#Cc1cc(F)ccc1N1CCN(C(=O)c2cccc(C(F)(F)F)c2Cl)CC1=O

IC50 [nM]	Compound
15.8	CN1C(=O)N(c2cnccn2)C[C@H]1C(=O)NCc1cccc(C(F)(F)F)c1Cl
5.01	CN1C(=O)N(c2cccnc2Cl)C[C@H]1C(=O)NCc1ccc(Cl)cc1Cl
39.8	CN1C(=O)NC[C@H]1C(=O)NCc1cccc(C(F)(F)F)c1F
2	Cc1c(CNC(=O)[C@@H]2CNC(=O)N2C)cccc1C(F)(F)F
158	CN1C(=O)NC[C@H]1C(=O)NCc1ccc(Cl)c(C(F)(F)F)c1
10	CN1C(=O)N(c2cccnc2Cl)C[C@H]1C(=O)NCc1ccc(F)c(F)c1Cl
1.58	CN1C(=O)N(c2cccnc2Cl)C[C@H]1C(=O)NCc1cccc(C(F)(F)F)c1Cl
100	CN1C(=O)NC[C@H]1C(=O)NCc1ccc(F)c(C(F)(F)F)c1
20	Cc1c(Cl)cccc1CNC(=O)[C@@H]1CNC(=O)N1C
3.98	CN1C(=O)N(c2ncc(F)cn2)C[C@H]1C(=O)NCc1ccc(Cl)cc1Cl
3.98	CCN1C(=O)NC[C@H]1C(=O)NCc1cccc(C(F)(F)F)c1Cl
6.31	Cc1c(Cl)cccc1CNC(=O)[C@@H]1CN(C)C(=O)N1C
50.1	CN1C[C@@H](C(=O)NCc2ccc(F)c(C(F)(F)F)c2)N(C)C1=O
2.51	CN1C[C@@H](C(=O)NCc2ccc(F)c(Cl)c2Cl)N(C)C1=O
50.1	CN1C[C@@H](C(=O)NCc2ccc(Cl)c(C(F)(F)F)c2)N(C)C1=O
1	CN1C[C@@H](C(=O)NCc2ccc(F)c(C(F)(F)F)c2Cl)N(C)C1=O
20	COc1ccnc(N2C[C@@H](C(=O)NCc3ccc(Cl)cc3Cl)N(C)C2=O)n1
6.31	CN1C(=O)N(c2ncc(Cl)cn2)C[C@H]1C(=O)NCc1ccc(Cl)cc1Cl
25.1	Cc1ccc(N2C[C@@H](C(=O)NCc3ccc(Cl)cc3Cl)N(C)C2=O)cn1
31.6	Cc1ccc(N2C[C@@H](C(=O)NCc3ccc(F)c(F)c3Cl)N(C)C2=O)cn1
